Data taken from patent publication US12152034B2, “FGFR inhibitors and methods of making and using the same” (Relay Therapeutics, Inc., priority 2020, dated 2024).
Blank lines part the entries; values can stand above or below the compound they belong to.

Experiments:
Type in all cases: physicochemical
[1] = Solubility in organic solvents quoted in competitive suspension equilibration studies; details: organic solvent or mixture
[2] = Solubility in Fasted State Simulated Intestinal Fluid (FaSSIF) and final pH in solution, salt screen of compound I-2
Description: (§1) The free base of Compound I-1 (compound I-2, 30 mg) was suspended in IPA (20 Vol., 600 μl at 50° C.). The suspensions were then cooled down to 5° C. at 0.1° C./min and were held at this temperature for 16 hrs. Stirring (500 rpm) was maintained throughout. Any gums that formed were maturated between 25 and 50° C. (4 hours at each temperature for 24 hrs). The suspensions were isolated by filtration under suction and air dried then analysed by XRPD. Any new patterns identified by XRPD were analysed further by NMR, TGA, DSC and stability at 40 C/75% RH for 1 week.
Several samples were analyzed for solubility in Fasted State Simulated Intestinal Fluid (FaSSIF) and final pH in solution.

[3] = Solubility measurements in SGF, FeSSIF and FaSSIF with XRPD of residual solids
Text: The results from the solubility measurements in simulated gastric fluid (SGF), simulated fed state conditions in the small intestines (FeSSIF), and simulated fasting state conditions in the small intestines fluid (FaSSIF) are summarised in Table 12. The salts show reduced solubility in SGF compared to the free form.
Crystalline FB Form A, HCl Form A, and the sufate salt Form A were scaled up for solubility analysis.
HCl Form A was successfully scaled up for solubility analysis.

[4] = Solubility assessment in solvents by aliquot addition (5-40 vol, 25° C., then heating); details: for Observation after treatment: 40 vol
Description: Compound II-1 (40 mg) was treated with an aliquot of solvent (200 μl for 5 vol, 400 μl for 10 vol, 800 μl for 20 vol) and left to stir at 25° C. for 15 minutes. After 15 minutes, suspensions were treated with another aliquot of solvent and left to stir for the same duration again. Any solutions were removed from stirring and further solvent additions. This procedure was repeated up to 40 vol.
At 40 vol, any remaining suspensions were heated to 40° C. at a rate of 10° C./min. Samples that remained as suspensions at 40° C. were moved to the maturation chamber (RT/50° C.) for 4 days. All solutions from solvent additions were heated to 50° C. before cooling to 5° C. at a rate of 0.1° C./min, then held at 5° C. overnight. […]

[5] = Hygroscopicity suggested by Thermal Gravimetric Analysis (TGA) weight loss; details: suggested by TGA weight loss / 1H NMR solvent content
Description: Thermal Gravimetric Analysis (TGA): TGA data was collected on a TA Instruments Q5000 TGA. A predefined amount of the sample, 2.0 to 10.0 mg, was placed in an aluminum pan and heated at 10° C./minute from 40° C. to 300° C., or varied as experimentation dictated. A purge of dry nitrogen at 25 ml/minute was maintained over the sample. The instrument control and data acquisition are acquired using Q Advantage software release version 5.5.23. The data was processed and presented using the TA Universal Analysis 2000 software version 4.5A build 4.5.0.5.

[6] = Storage at 40° C./75% RH for 7 days (one week), form checked by XRPD; details: 40° C./75% RH, one week (7 days)
Description: as §1, with “The” for “The free base of Compound I-1 (compound I-2, 30 mg) was suspended in IPA (20 Vol., 600 μl at 50° C.). The”

[7] = listed as Compound III-1 Form A
[8] = listed as Compound III-1 Form B

Solubility ([1]; ethanol): 2300 µg/mL | Solubility ([1]; methanol): 18700 µg/mL | Solubility ([2]; Fasted State Simulated Intestinal Fluid (FaSSIF), fassif, thermodynamic from solid, Fasted State Simulated Intestinal Fluid, solids from salt screen in IPA): 5.1 µg/mL | Final pH ([2]; final pH in solution of the FaSSIF solubility sample): 4.06
Compound: C=C(C)C(=O)Nc1ccc(-c2c(-c3ccc(Oc4nccc(C)n4)c(F)c3)c3c(N)ncnc3n2C)cc1.Cl [Compound I-1, N-(4-(4-amino-5-(3-fluoro-4-((4-methylpyrimidin-2-yl)oxy)phenyl)-7-methyl-7H-pyrrolo[2,3-d]pyrimidin-6-yl)phenyl)methacrylamide hydrochloride]

XRPD of residual solids after solubility measurement ([3]; all media (SGF, FeSSIF, FaSSIF)): remained unchanged | solubility in FaSSIF (in words) ([3]; simulated fasting state intestinal fluid): lowest solubility | Observation after treatment ([4]; 2-Propanol, after maturation (RT/50° C.) 4 days): Suspension | Observation after treatment ([4]; 10% Water/IPA, after maturation (RT/50° C.) 4 days): Suspension | Observation after treatment ([4]; 10% Water/MeCN, after cooling from 50° C. to 5° C.): Clear | solubility (solvent volumes to give a clear solution) ([4]; 10% water/MeCN, 50° C.): 40 vol | solubility in the solvents tested (in words) ([4]; 13 solvents, up to 40 vol): low solubility | Observation after treatment ([4]; Acetone, after cooling from 50° C. to 5° C.): Very thin | Observation after treatment ([4]; Ethanol, after maturation (RT/50° C.) 4 days): Suspension | Observation after treatment ([4]; Ethyl acetate, after maturation (RT/50° C.) 4 days): Suspension | Observation after treatment ([4]; Isopropyl acetate, after maturation (RT/50° C.) 4 days): Suspension | Observation after treatment ([4]; MEK, after maturation (RT/50° C.) 4 days): Suspension | Observation after treatment ([4]; Methanol, after cooling from 50° C. to 5° C.): Very thin | Observation after treatment ([4]; TBME, after maturation (RT/50° C.) 4 days): Suspension | solubility (solvent volumes to give a clear solution) ([4]; THF, 25° C.): 40 vol | Observation after treatment ([4]; THF, after cooling from 50° C. to 5° C.): Clear | Observation after treatment ([4]; Water, after maturation (RT/50° C.) 4 days): Suspension | solubility (solvent volumes to give a clear solution) ([4]; acetone, 50° C.): 40 vol | solubility (solvent volumes to give a clear solution) ([4]; methanol, 50° C.): 40 vol | Observation after treatment ([4]; n-Heptane, after maturation (RT/50° C.) 4 days): Suspension | hygroscopicity (in words) [5, 7]: potentially hygroscopic | hygroscopicity (in words) [5, 8]: possibly hygroscopic | XRPD after storage at 40° C./75% RH for 7 days [6, 7]: no change in form | XRPD after storage at 40° C./75% RH for 7 days ([6]; listed as Compound III-1 Form C): no change in form
Compound: C#Cc1cc(OC)c(-c2c(-c3ccc(Oc4nccc(C)n4)c(F)c3)c3c(C)ncnc3n2C)cn1 [Compound III-1, 6-(6-ethynyl-4-methoxypyridin-3-yl)-5-(3-fluoro-4-((4-methylpyrimidin-2-yl)oxy)phenyl)-4,7-dimethyl-7H-pyrrolo[2,3-d]pyrimidine]
XRPD after storage at 40° C./75% RH for 7 days [6, 8]: conversion to Form A (plus additional peaks)
